“And” between values parts separate entries of the source, which are not always exact repeats. Identical values can stand only once. “Also recorded” adds a separate entry of the source.
Columns and labels:
[1] = tested on: Posterior Pituitary GABAA Receptor; assay: GABA-gated Cl- single-channel currents in outside-out patches excised from posterior pituitary nerve terminals; format: cell-based
Protocol: (§1) Measurements were made in nerve terminals for responses to GABA alone or GABA+steroid. The ratios were computed as (GABA+steroid)/GABA, and the geometric means were computed for the indicated number of ratios. The * indicates statistical significance at the level of P<0.05. […] The single-channel activity was determined from Po using all-points histograms such as those shown in FIGS. 4B and 4D, as described in METHODS. The GABA concentration was […] for the first two columns and 1 mM for the last column.

[2] = tested on: Posterior Pituitary GABAA Receptor; assay: Desensitization of the GABAA receptor during sustained GABA application, whole-terminal recordings; format: cell-based; parameters: Time constant of desensitization, GABA with steroid: dose or concentration left out as unconfirmed; conditions: for Desensitization Time-Constant Ratio: (GABA+steroid)/GABA, geometric mean, allopregnanolone 100 nM, estradiol-17β 100 nM; for Time constant of desensitization, GABA with steroid: sustained application of GABA in the presence of steroid, same terminals as controls
Source text: FIGS. 3A and 3B are whole terminal recordings showing the GABA desensitizing effect of certain neuroactive steroids on the GABAA receptor. […] 3B illustrates the effect of allopregnanolone.
Sustained application of GABA desensitized the receptor with a time constant of 9.5±0.5 sec (n=3). […] Similar results were obtained with allopregnanolone; the average time constant for desensitization was 9.1±1.8 sec with GABA alone and 10.2±1.7 sec (n=3) with GABA and allopregnanolone.
as §1

[3] = tested on: Posterior Pituitary GABAA Receptor; assay: Whole-terminal patch clamp recording of GABA responses in posterior pituitary nerve terminals; format: cell-based; conditions: for Effect on GABA-activated Cl- current / GABAA receptor responses of nerve terminals (in words): posterior pituitary nerve terminals
Protocol: as §1

[4] = Treatment and prevention of hypertension in borderline hypertensive patients (Example 2); format: in vivo, human; conditions: daily high physiological dosage, after one year, versus placebo; expected
Source text: An experiment is run with study group of patients who are borderline hypertensive. Half of the group is given daily a high physiological dosage of allepregnanolone. The remaining patients are placed on placebo.

[5] = Oral contraceptive containing neuroactive steroid in premenopausal women (Example 3); format: in vivo, human; conditions: progesterone containing oral contraceptive with neuroactive steroid, two years; expected
Source text: An experiment is run with a study group of premenopausal women. Half of the group is placed on a progesterone containing oral contraceptive which also contains a neuroactive steroid such as allepregnanolone. The other half of the study group is given the same oral contraceptive but without neuroactive steroid. The study is run for two years and the group is regularly evaluated for its cardiovascular status.

Structure (SMILES)	Effect on GABA-activated single-channel activity (in words) [1]	Desensitization Time-Constant Ratio [2]	Effect on rate of desensitization (in words) ([2]; sustained GABA application)	Time constant of desensitization, GABA with steroid [2] [s]	GABA responses as % of controls ([3]; estradiol-17β 100 nM, n=6) [%]	Effect on GABA-activated Cl- current / GABAA receptor responses of nerve terminals (in words) [3]	Time constant of desensitization, GABA alone ([2]; sustained application of GABA alone (controls of the alphaxalone, allopregnanolone and estradiol-17β experiments, in this order))	Blood pressure relative to control [4]	Cardiovascular status compared to control [5]
C[C@]12CC[C@@H]3c4ccc(O)cc4CC[C@H]3[C@@H]1CC[C@@H]2O [Estradiol-17β]	went down slightly	0.90	failed to alter the rate of desensitization	7.9 ± 1.9	78	weak inhibitory effect			
NCCCC(=O)O [GABA]							9.5 ± 0.5 s and 9.1 ± 1.8 s and 9.2 ± 0.2 s		
CC(=O)[C@H]1CC[C@H]2[C@@H]3CC[C@H]4C[C@H](O)CC[C@]4(C)[C@H]3CC[C@]12C [Allopregnanolone, 3α-hydroxy-5α-pregnan-20-one]	more channel activity than GABA alone; also recorded: clearly increased	1.14		10.2 ± 1.7		potentiated; also recorded: strongly enhanced		significantly lower blood pressure relative to control	significantly better cardiovascular status compared to control
CC(=O)[C@H]1CC[C@H]2[C@@H]3CC[C@H]4C[C@H](O)CC[C@]4(C)[C@H]3C(=O)C[C@]12C [Alphaxalone, alphaxalone]				8.9 ± 0.5					

— patent US5763431A, “Method for regulating neuropeptide hormone secretion” (priority 1996, dated 1998)
